According to US11925669B2, “Chinese herbal medicine composition having a function of reducing uric acid” (Infinitus (China) Company Ltd., priority 2013, dated 2024):
Marks after values point to notes of the source that are not given here.

Columns and labels:
[1] = system: rat model of hyperuricemia; test: Reducing uric acid in the rat model of hyperuricemia (Oteracil potassium), 30 d intragastric administration; format: in vivo, SD Rat; conditions: for UA Reduction: day 30, calculated in comparison with Model control group
Source text: Examine the effect of the Chinese herbal composition of the present invention for reducing uric acid in the rat model of hyperuricemia. Animals were assigned randomly into: Blank control group, Sample control group, Model control group, Test group, and Positive control group. Each group consisted of 10 animals. […] They were randomly assigned into 5 groups, each group consisting of 10 animals, the body weight distribution of each group of rats is similar. […] Blank control group was administrated with 17 ml/kg of distilled water intragastrically every afternoon, Sample control group was administrated with 17 ml/kg of test sample intragastrically every afternoon, Model control group was administrated with distilled water intragastrically in the afternoon, Positive control group was administrated with allopurinol intragastrically in the afternoon, and Test group was administrated with 17 ml/kg of test sample intragastrically in the afternoon. Additionally, for Model control group, Positive control group and Test group, each group was administrated with Oteracil potassium intragastrically every morning. The administration was conducted daily for 30 days. Prior to experiments, the rats were fastened for 12 h (but water was provided) and then about 1 ml of blood were taken from orbital veniplex with glass capillary tube. Sera were separated for measuring the pre-testing level of uric acid. On day 30, blood were taken in the same manner and sera were separated for measuring the serum levels of uric acid, creatinine, and urea nitrogen. Modeling principle: Rats were intragastrically administrated with Oteracil potassium, a chemical inhibitor of uricase, to inhibit the activity of uricase in the body of rats, rendering uric acid in the body of rats unable to breakdown, causing the accumulation of uric acid produced in the serum, so as to produce a rat model of hyperuricemia. Model control group: 17 ml/kg*d of distilled water was administrated intragastrically, once daily for 30 days; Test sample prevention group: 17 ml/kg*d of test sample was administrated intragastrically, once daily for 30 days; Positive control group: 17 ml/kg*d of positive control allopurinolis administrated intragastrically, once daily for 30 days. Observation of Body weight: The growing condition of animals were observed by weighing prior to administration and on Day 30 of administration. Blood were taken prior to administration and on Day 30 of administration to measure uric acid, creatinine, urea nitrogen, to calculate the changing rate of uric acid level in serum. The changing rate of uric acid in serum=(uric acid value in serum after experiment-uric acid value in serum prior to experiment)/uric acid value in serum prior to […]100% ANOVA (analysis of variance) was used. Firstly, homogeneous variance test was carried out, and F values were calculated.

[2] = system: rat model of hyperuricemia; test: as above; format: in vivo, SD Rat; conditions: hyperuricemia model rats, X ± S
[3] = hyperuricemia model rats, intragastric once daily, day 30, X ± S

BUN level in the sera of rats upon 30 d administration [1, 3]: 5.53 ± 0.79 mM
General status observation (appearance, activities, excrement characters) ([1]; in comparison with Model control group, observed daily): no significant difference
Structure (SMILES): Oc1ncnc2[nH]ncc12 [allopurinol]
30 d weight ([1]; hyperuricemia model rats, body weight after 30 days, X ± S): 254.4 ± 23.1 g
UA Reduction ([1]; hyperuricemia model rats): 53.4%
UA Reduction ([1]; hyperuricemia model rats, listed as Positive control): ↓53.4%
UA level in the sera of rats upon 30 d administration [1, 3]: 63.20 ± 17.19** μmol/L
Blood/serum UA level change in words ([1]; in comparison with Model control group, 30 d oral administration): significant reduction
10 d weight ([2]; body weight after 10 days): 185.7 ± 15.9 g
20 d weight ([2]; body weight after 20 days): 224.2 ± 21.8 g
